Measurements reported in US20260216348A1, “IRAK DEGRADATION AGENT AND USE THEREOF” (Increland, priority 2023, published 2026).

Assays:
[1] = system: DSS-induced enteritis model; assay: DSS-induced enteritis (colitis) model; assay type: in vivo, mice; settings: po, QD, Model 10.33 ± 1.11, Mean ± SD, n = 7
Description: The experimental mice were pre-acclimatized in the animal facility for one week; at the beginning of the experiment, the mice were given medication intragastrically daily according to their body weight. After the completion of intragastric administration in each group, mice had direct access to water bottles for free drinking. The blank group received normal water, while the other groups received pre-prepared DSS water. Each afternoon, the mice's abdomens were massaged to stimulate defecation, and one fecal pellet was collected onto a white porcelain plate. Fecal consistency was judged and recorded according to Table 30. The fecal occult blood qualitative test kit (Yuanye Biotechnology, #R24187-300T) was used to test for occult blood in feces and the results were interpreted according to Table 31.

IMQ psoriasis model = assay: IMQ (imiquimod)-induced psoriasis model; assay type: in vivo, BALB/c mice; settings: QD, Mean ± SD, n = 7; for PASI Score d 6: Model 8.85 ± 1.66; for ΔSkin Thickness Change (μm) d 6: Model 80.95 ± 6.16
Procedure: Male BALB/c mice, aged 6-8 weeks, were randomly divided into 9 groups after 1 week of acclimatization: blank control group, imiquimod model group (IMQ group, corresponding to the model groups in FIGS. 1 and 2), clobetasol propionate cream group (CLO group), TYKI (BMS-986165) group, IRAK4 protein degrader KT-474 (from patent WO2020113233) group (100 mg/kg), and the compound of the present disclosure (at an appropriate dose), with 6-7 mice in each group. One day before modeling, the hair on the backs of the mice was removed with depilatory cream, with a depilated area of 2×2 cm^2. On the day of modeling, IMQ cream was used for modeling, and the corresponding drugs were administered intragastrically for treatment. The compound of the present disclosure (at an appropriate dose) was administered intragastrically once daily, and IMQ cream was applied to the hairless area on the back and left ear of mice 2 h after the first administration. […] The blank group and the IMQ group were administered with vehicle intragastrically twice daily (in the morning and evening), with an 8-h interval between the two intragastric administrations. At 2 h after the first intragastric administration, vaseline and IMQ cream were applied topically to the depilated back and ears of the mice, respectively. The dosage of IMQ cream administered to the depilated area on the back and the left ear was 80 mg and 10 mg, respectively, and the mice in each group were administered the cream for 5 consecutive days.
Reference was made to the Psoriasis Area and Severity Index (PASI) scoring criteria. The psoriasis, erythema, and thickness of skin lesions on the back were scored from 0 to 4 every morning from day 1 of modeling, with the scoring criteria as shown in Table 28. The 3 were added up to obtain a total score, i.e., a total PASI score. The ear thickness of the left ear of the mouse was measured using a digital vernier caliper three times every morning from day 1 of modeling, to obtain a mean value.

[2] = system: R848-induced IL-6 secretion in human peripheral blood mononuclear cells (PBMCs); assay: Inhibition of R848-induced IL-6 secretion in human PBMCs (IL-6 ELISA); assay type: cell-based; settings: PBMC, R848 2.5 μg/mL, 20 h pre-incubation, 24 h stimulation
Outline: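 Human PBMCs at 1.25×10^6 cells/mL were preincubated for 20 h at 37 °C with compound, starting at 1 μM in 4-fold dilutions. They were then stimulated with 2.5 μg/mL R848 for 24 h. Supernatant IL-6 was measured by ELISA at OD450 against a standard curve.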

[3] = Pharmacokinetic experiment on SD rats (iv and intragastric); assay type: in vivo; settings: Sprague-Dawley, rat, plasma, po; for bioavailability: ig 10.00 mg/kg vs iv 1.00 mg/kg, read-out: Oral bioavailability Fobs; for AUC / AUC(0-inf) / Cmax: ig, 10.00 mg/kg; for Cmax: read-out: Peak plasma concentration Cmax
[4] = Metabolic stability in human liver microsome; assay type: in vitro ADME; settings: liver microsomes, NADPH, 60 min, read-out: Human liver microsome (t1/2, min)
Procedure: Clean incubation plates T60 and NCF60 were preheated at 37° C. for 10 min. Liver microsomes were diluted to a concentration of 0.56 mg/mL with 100 mM phosphate buffer, and 445 μL of the microsome working solution (0.56 mg/mL) was transferred to the preheated incubation plates T60 and NCF60, followed by incubation of the plates T60 and NCF60 with continuous shaking at 37° C. for 10 min. After incubation, 54 μL of liver microsomes were transferred to a blank plate, 6 μL of NAPDH cofactor was added to the blank plate, and then 180 μL of quenching solution was added to the blank plate. 5 μL of the compound working solution (100 μM) was added to the microsome-containing incubation plates T60 and NCF60, and mixed thoroughly 3 times. For plate NCF60, 50 μL of buffer was added and the system was mixed thoroughly 3 times before timing was started, and the plate was incubated with shaking at 37° C. for 60 min. For the quenching plate, 180 μL of quenching solution and 6 μL of NADPH cofactor were added, and the plate was ensured to be cooled to prevent evaporation. For the T60 plate, the mixture was thoroughly mixed 3 times, and 54 μL of the mixture was immediately transferred to the quenching plate at the time point of 0 min. Then 44 μL of the NAPDH cofactor was added to the incubation plate (T60). Timing was started, and the plate was incubated with shaking at 37° C. for 60 min. At the time points of 5, 15, 30, 45, and 60 min, 180 μL of the quenching solution was added to the quenching plate respectively, mixed once, and 60 μL of sample was continuously transferred from the plate T60 to the quenching plate at each time point. For plate NCF60, after mixing once, 60 μL of the sample was transferred from incubation plate NCF60 to the quenching plate containing quenching solution at the 60-min time point. All sampling plates were shaken for 10 min, then centrifuged at 4000 rpm at 4° C. for 20 min. 80 μL of the supernatant was transferred to 240 μL of HPLC water, and mixed using a plate shaker for 10 min. Each bioanalytical plate was sealed and shaken for 10 min before LC-MS/MS analysis.

bioavailability [3] [%] | AUC [3] [ng·h/mL] | AUC(0-inf) [3] [ng·h/mL] | Cmax [3] [ng/mL] | half-life at 1 µM [4] [min] | SMILES | DAI Score d 8 ([1]; 3 mpk) | DAI Score d 8 ([1]; 10 mpk) | DAI Score d 8 ([1]; 30 mpk) | PASI Score d 6 (IMQ psoriasis model; 3 mg/kg) | ΔSkin Thickness Change (μm) d 6 (IMQ psoriasis model; 3 mg/kg) [μm] | PASI Score d 6 (IMQ psoriasis model; 10 mg/kg) | ΔSkin Thickness Change (μm) d 6 (IMQ psoriasis model; 10 mg/kg) [μm] | PASI Score d 6 (IMQ psoriasis model; 30 mg/kg) | ΔSkin Thickness Change (μm) d 6 (IMQ psoriasis model; 30 mg/kg) [μm] | IC50 [2] [nM]
24.5 | 3630 ± 1500 | 4160 ± 1440 | 356 ± 201 | – | CN(C)c1cc2nn([C@H]3CC[C@H](CN4CCC(n5cc6c(F)cc(N7CCC(=O)NC7=O)cc6n5)CC4)CC3)cc2cc1NC(=O)c1cnn2cccnc12 [TM-174] | 3.57 ± 2.26 | 2.71 ± 1.39 | 2.71 ± 0.70 | 6.69 ± 1.07 | 58.10 ± 17.31 | 7.31 ± 1.87 | 59.29 ± 18.23 | 4.38 ± 1.24 | 43.81 ± 16.66 | 3.19
35.2 | 14200 ± 4660 | 14900 ± 4690 | 1650 ± 641 | 106 | CN(C)c1cc2nn([C@H]3CC[C@H](CN4C[C@@H](n5cc6cc(C7CCC(=O)NC7=O)c(F)cc6n5)[C@@H](F)C4)CC3)cc2cc1NC(=O)c1cnn2cccnc12 (some centres unmarked) [TM-241] | – | – | – | – | – | – | – | – | – | 9.08
54.2 | 13000 ± 2900 | 13200 ± 2960 | 1330 ± 294 | 79.5 | CN(C)c1cc2nn([C@H]3CC[C@H](CN4C[C@@H](F)[C@H](n5cc6cc(C7CCC(=O)NC7=O)ccc6n5)C4)CC3)cc2cc1NC(=O)c1cnn2cccnc12 (some centres unmarked) [TM-244] | – | – | – | – | – | – | – | – | – | 14.4
29.9 | 7990 ± 3140 | 7990 ± 3120 | 976 ± 545 | 98.6 | CN(C)c1cc2nn([C@H]3CC[C@H](CN4C[C@@H](F)[C@@H](n5cc6cc(C7CCC(=O)NC7=O)c(F)cc6n5)C4)CC3)cc2cc1NC(=O)c1cnn2cccnc12 (some centres unmarked) [TM-240] | – | – | – | – | – | – | – | – | – | 2.68
– | – | – | – | – | CN(C)c1cc2nn([C@H]3CC[C@H](CN4C[C@@H](n5cc6cc(N7CCC(=O)NC7=O)ccc6n5)[C@@H](F)C4)CC3)cc2cc1NC(=O)c1cnn2cccnc12 [TM-205] | 4.86 ± 1.55 | 3.29 ± 1.67 | 2.71 ± 0.70 | 7.29 ± 1.99 | 65.71 ± 10.23 | 6.75 ± 1.28 | 52.62 ± 9.59 | 4.84 ± 0.80 | 53.10 ± 12.95 | 3.78
38.8 | 8610 ± 4000 | 9310 ± 4680 | 814 ± 187 | 139 | CN(C)c1cc2nn([C@H]3CC[C@H](CN4C[C@H](F)[C@@H](n5cc6cc(C7CCC(=O)NC7=O)c(F)cc6n5)C4)CC3)cc2cc1NC(=O)c1cnn2cccnc12 (some centres unmarked) [TM-249] | – | – | – | – | – | – | – | – | – | 4.37
63.7 | 14500 ± 1420 | 19000 ± 5060 | 1190 ± 92.3 | 87.4 | CN(C)c1cc2nn([C@H]3CC[C@H](CN4C[C@@H](F)[C@H](n5cc6cc(C7CCC(=O)NC7=O)c(F)cc6n5)C4)CC3)cc2cc1NC(=O)c1cnn2cccnc12 (some centres unmarked) [TM-245] | – | – | – | – | – | – | – | – | – | 4.02
– | – | – | – | 65 | CN(C)c1cc2nn([C@H]3CC[C@H](CN4CC[C@@H](n5cc6cc(C7CCC(=O)NC7=O)c(F)cc6n5)[C@@H](F)C4)CC3)cc2cc1NC(=O)c1cnn2cccnc12 (some centres unmarked) [TM-135] | – | – | – | – | – | – | – | – | – | 4.53
